# Measured values published in US7160874B2, “Phenylalanine derivatives” (Ajinomoto Co., Inc., priority 1999, dated 2007).
# How the values were obtained:
# integrin α4β1 = target: T1, integrin α4β1 (Homo sapiens, UniProt P05556+P13612); experiment: VCAM antagonist activity (VCAM-1/α4β1 binding assay); type: cell-based; conditions: Jurkat cells binding to VCAM-1; read-out: VCAM antagonistic activity (IC50) α4β1
# T1 construct: cell strain Jurkat (ATCC TIB-152) of human T cells, known to express integrin α4β1; host or cells: Jurkat (human T cell line)
# Method: (Test Example) VCAM Antagonist Activity (VCAM-1/α4β1 Binding Assay):
# The capacity of a test substance antagonistic to the binding of cell strain Jurkat (ATCC TIB-152) of human T cells, known to express integrin α4β1, to VCAM-1 was determined.
# (§1) 100 μl/well of a solution (500 ng/ml) of recombinant human VCAM-1 (R & D systems) solution diluted with buffer A (0.1 M NaHCO3, pH 9.6) was added to a micro titer plate having 96 wells (Nunc Maxisorp). After the incubation at 4° C. overnight, unbound VCAM-1 was removed by washing once with PBS. After completion of the washing, a buffer (buffer B) obtained by diluting Block Ace® (Dainippon Pharmaceutical Co., Ltd.) with PBS to 1/4 concentration was added in an amount of 150 μl/well. After the incubation at room temperature for 1 hour, buffer B was removed and the plate was washed with PBS once.
# Jurkat cells were washed with Dulbecco modified Eagle medium (SIGMA, hereinafter referred to as “DMEM”) twice and then incubated in DMEM containing 10 μg/ml of Calcein-AM (Wako Pure Chemical Industries, Ltd.) at 37° C. in dark place for 30 minutes to label with fluorescence. The cells were again suspended in a binding buffer (20 mM HEPES, DMEM containing 0.1% BSA).
# (§2) 50 μl of a test substance of various concentrations obtained by the dilution with the binding buffer was added to the plate. Immediately thereafter, 50 μl (final volume: 100 μl/well) of the fluorescent Jurkat cells (4×10^6 cells/ml) were added thereto, and they were incubated at room temperature for 30 minutes. After the shaking on a plate shaker (IKA MTS-4) at 800 rpm for 30 seconds, the solution was immediately removed to remove the unbound cells. The fluorescence quantity of the bound cells remaining in the wells was determined with a fluorescent plate reader (Wallac 1420 ARVO multi-label counter) (filter excitation wave length: 485 nm, emission wave length: 535 nm). The fluorescent strength thus obtained is proportional to the number of Jurkat cells bound to VCAM-1 and remaining on the plate. The binding rate of each test material in various concentrations was determined while the fluorescent strength of the test material-free well was determined to be 100%. The concentration IC50 for the 50% binding inhibition was calculated.
# (§3) The activities were classified into group A wherein IC50 was 0.02 μmol/l or below, group B wherein IC50 was higher than 0.02 μmol/l and not above 0.1 μmol/l, group C wherein IC50 was higher than 0.1 μmol/l and not above 2 μmol/l, and group D wherein IC50 was higher than 2 μmol/l and not above 10 μmol/l.
# integrin α4β7 = target: T2, integrin α4β7 (Homo sapiens, UniProt P13612+P26010); experiment: VCAM antagonistic activity (VCAM-1/α4β7 binding assay); type: cell-based; conditions: RPMI-8866 cells binding to VCAM-1; read-out: VCAM antagonistic activity (IC50) α4β7
# T2 construct: lymphoma cell strain RPMI-8866 of human B cells, known to express integrin α4β7; endogenous in cells; host or cells: RPMI-8866 (human B lymphoma cell line)
# T2 sequence (P13612 34-1032): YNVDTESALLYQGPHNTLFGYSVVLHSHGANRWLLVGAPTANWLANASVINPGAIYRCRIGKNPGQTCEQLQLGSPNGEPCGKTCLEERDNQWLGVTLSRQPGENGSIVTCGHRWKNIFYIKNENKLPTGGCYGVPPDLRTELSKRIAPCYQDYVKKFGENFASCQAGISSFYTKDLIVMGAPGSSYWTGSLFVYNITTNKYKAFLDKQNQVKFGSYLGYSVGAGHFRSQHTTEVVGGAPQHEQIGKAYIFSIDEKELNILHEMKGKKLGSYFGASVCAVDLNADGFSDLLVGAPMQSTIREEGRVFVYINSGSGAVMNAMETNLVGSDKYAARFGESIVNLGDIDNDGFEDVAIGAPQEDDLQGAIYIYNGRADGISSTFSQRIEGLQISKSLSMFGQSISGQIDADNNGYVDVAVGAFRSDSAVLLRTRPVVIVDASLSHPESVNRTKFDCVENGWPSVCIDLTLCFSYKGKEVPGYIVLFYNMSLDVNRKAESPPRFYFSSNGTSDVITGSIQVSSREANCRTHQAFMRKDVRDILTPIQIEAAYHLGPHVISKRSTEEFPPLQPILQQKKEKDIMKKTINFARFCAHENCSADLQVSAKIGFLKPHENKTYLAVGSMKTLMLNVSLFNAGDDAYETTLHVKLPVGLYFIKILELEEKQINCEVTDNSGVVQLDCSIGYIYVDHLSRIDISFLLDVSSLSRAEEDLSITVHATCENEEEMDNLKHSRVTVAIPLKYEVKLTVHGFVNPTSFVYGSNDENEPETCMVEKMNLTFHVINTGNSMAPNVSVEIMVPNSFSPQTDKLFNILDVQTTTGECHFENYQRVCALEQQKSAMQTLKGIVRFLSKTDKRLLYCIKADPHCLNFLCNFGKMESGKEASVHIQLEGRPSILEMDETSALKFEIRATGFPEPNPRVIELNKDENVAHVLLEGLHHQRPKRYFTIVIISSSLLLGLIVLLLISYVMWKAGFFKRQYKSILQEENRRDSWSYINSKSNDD
# T2 sequence (P26010 20-798): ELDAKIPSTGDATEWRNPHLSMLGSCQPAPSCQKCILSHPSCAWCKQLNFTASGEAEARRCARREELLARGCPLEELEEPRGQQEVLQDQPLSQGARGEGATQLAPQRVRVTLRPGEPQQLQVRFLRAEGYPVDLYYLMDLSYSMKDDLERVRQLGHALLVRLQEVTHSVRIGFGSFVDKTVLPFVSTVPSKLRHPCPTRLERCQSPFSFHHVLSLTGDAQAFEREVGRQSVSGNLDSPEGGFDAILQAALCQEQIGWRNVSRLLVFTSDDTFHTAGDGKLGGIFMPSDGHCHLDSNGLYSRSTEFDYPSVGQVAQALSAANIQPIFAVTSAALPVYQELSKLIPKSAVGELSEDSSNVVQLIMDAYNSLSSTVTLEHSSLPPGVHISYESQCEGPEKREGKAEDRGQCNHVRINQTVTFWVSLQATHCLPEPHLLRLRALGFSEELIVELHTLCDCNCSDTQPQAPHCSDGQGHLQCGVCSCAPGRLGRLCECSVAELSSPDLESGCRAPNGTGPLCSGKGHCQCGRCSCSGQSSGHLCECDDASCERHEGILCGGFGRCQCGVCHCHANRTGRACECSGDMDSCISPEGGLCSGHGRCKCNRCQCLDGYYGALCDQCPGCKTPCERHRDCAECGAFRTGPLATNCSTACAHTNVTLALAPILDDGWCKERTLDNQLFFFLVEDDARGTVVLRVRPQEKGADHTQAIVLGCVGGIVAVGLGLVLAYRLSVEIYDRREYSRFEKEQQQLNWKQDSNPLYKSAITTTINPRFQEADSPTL
# Method: (Test Example) VCAM Antagonistic Activity (VCAM-1/α4β7 Binding Assay):
# The capacity of a test substance antagonistic to the binding of lymphoma cell strain RPMI-8866 of human B cells, known to express integrin α4β7, to VCAM-1 was determined.
# as §1
# RPMI-8866 cells were incubated in Dulbecco modified Eagle medium containing 10 μg/ml of Calcein-AM (Wako Pure Chemical Industries, Ltd.) (SIGMA, hereinafter referred to as “DMEM”) at 37° C. for 30 minutes to label with fluorescence. The cells were again suspended in a binding buffer (20 mM HEPES, DMEM containing 0.1% BSA) containing 4 mM of MnCl2.
# as §2, with “RPMI-8866” for “Jurkat”
# as §3
# T1 sequence (P05556 21-798, one chain of several): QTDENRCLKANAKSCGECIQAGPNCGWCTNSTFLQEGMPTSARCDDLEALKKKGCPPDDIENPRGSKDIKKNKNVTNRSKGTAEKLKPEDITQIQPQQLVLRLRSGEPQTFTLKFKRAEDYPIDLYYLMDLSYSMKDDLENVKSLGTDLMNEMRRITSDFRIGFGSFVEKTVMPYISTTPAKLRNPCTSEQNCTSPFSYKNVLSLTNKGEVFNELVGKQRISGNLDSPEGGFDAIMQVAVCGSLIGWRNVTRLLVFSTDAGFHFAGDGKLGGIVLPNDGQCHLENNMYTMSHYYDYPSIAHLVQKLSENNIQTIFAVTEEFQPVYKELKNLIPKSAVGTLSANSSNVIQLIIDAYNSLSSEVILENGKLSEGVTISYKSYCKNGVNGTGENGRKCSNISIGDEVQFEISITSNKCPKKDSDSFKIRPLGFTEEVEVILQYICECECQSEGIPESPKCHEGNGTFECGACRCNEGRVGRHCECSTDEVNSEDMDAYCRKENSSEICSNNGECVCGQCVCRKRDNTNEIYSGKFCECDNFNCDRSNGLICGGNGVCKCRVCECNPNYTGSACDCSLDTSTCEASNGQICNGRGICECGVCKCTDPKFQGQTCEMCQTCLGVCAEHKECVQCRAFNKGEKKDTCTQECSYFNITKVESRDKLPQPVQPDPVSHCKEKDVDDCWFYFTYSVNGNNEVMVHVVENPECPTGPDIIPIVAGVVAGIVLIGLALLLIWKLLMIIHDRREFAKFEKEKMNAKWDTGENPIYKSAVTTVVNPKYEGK
SMILES,IC50 (integrin α4β1) [µM],IC50 (integrin α4β7) [µM]
CCC(CC)(C(=O)N[C@@H](Cc1ccc(OCc2c(Cl)cccc2Cl)cc1)C(=O)O)C(=O)N1CC[C@@H](O)C1 [Example 35],0.02 to 0.1,< 0.02
CCC(CC)(C(=O)N[C@@H](Cc1ccc(OCc2c(Cl)cccc2Cl)cc1)C(=O)O)C(=O)N1CCSCC1 [Example 36],0.1 to 2,0.02 to 0.1
CCC(CC)(C(=O)N[C@@H](Cc1ccc(OCc2c(Cl)cccc2Cl)cc1)C(=O)O)C(=O)N1CCC(C(N)=O)CC1 [Example 39],0.1 to 2,0.02 to 0.1
CCC(CC)(C(=O)N[C@@H](Cc1ccc(OCc2c(Cl)cccc2Cl)cc1)C(=O)O)C(=O)N(C)CCN(C)C [Example 40],0.1 to 2,0.02 to 0.1
CCN(C)C(=O)C(CC)(CC)C(=O)N[C@@H](Cc1ccc(OCc2c(Cl)cccc2Cl)cc1)C(=O)O [Example 41],0.1 to 2,0.02 to 0.1
CCC(CC)(C(=O)N[C@@H](Cc1ccc(OCc2c(Cl)cccc2Cl)cc1)C(=O)O)C(=O)N1CCCNCC1 [Example 42],0.1 to 2,0.02 to 0.1
CCC(CC)(C(=O)N[C@@H](Cc1ccc(OCc2c(Cl)cccc2Cl)cc1)C(=O)O)C(=O)N1CC[C@@H](N(C)C)C1 [Example 44],0.1 to 2,< 0.02
CCC(CC)(C(=O)N[C@@H](Cc1ccc(OCc2c(Cl)cccc2Cl)cc1)C(=O)O)C(=O)N1CCN(C=O)CC1 [Example 45],0.1 to 2,0.02 to 0.1
CCC(CC)(C(=O)N[C@@H](Cc1ccc(OCc2c(Cl)cccc2Cl)cc1)C(=O)O)C(=O)N1C[C@H](O)C[C@H]1C(=O)OC [Example 46],0.1 to 2,< 0.02
CCC(CC)(C(=O)N[C@@H](Cc1ccc(OCc2c(Cl)cccc2Cl)cc1)C(=O)O)C(=O)N1CCC(O)CC1 [Example 49],0.1 to 2,0.02 to 0.1
CCC(CC)(C(=O)N[C@@H](Cc1ccc(OCc2c(Cl)cccc2Cl)cc1)C(=O)O)C(=O)N1CCC[C@H]1COC [Example 50],0.1 to 2,0.02 to 0.1
CCC(CC)(C(=O)N[C@@H](Cc1ccc(OCc2c(Cl)cccc2Cl)cc1)C(=O)O)C(=O)N1CCC[C@H]1CN1CCCC1 [Example 53],0.1 to 2,< 0.02
CCC(CC)(C(=O)N[C@@H](Cc1ccc(OCc2c(Cl)cccc2Cl)cc1)C(=O)O)C(=O)N1CC[C@@H](NC(C)=O)C1 [Example 54],0.02 to 0.1,< 0.02
CCC(CC)(C(=O)N[C@@H](Cc1ccc(OCc2c(Cl)cccc2Cl)cc1)C(=O)O)C(=O)N1CC[C@H](NC(C)=O)C1 [Example 55],0.02 to 0.1,< 0.02
CCC(CC)(C(=O)NC(Cc1ccc(OCc2c(Cl)cccc2Cl)cc1)C(=O)O)C(=O)N1CCCC1C(=O)OC (stereo not shown) [Example 56],0.1 to 2,< 0.02
O=C(O)[C@H](Cc1ccc(OCc2c(Cl)cccc2Cl)cc1)NC(=O)C1(C(=O)N2CCCC2)CCOCC1 [Example 58],0.1 to 2,0.1 to 2
O=C1CCN(C(=O)C2(C(=O)N[C@@H](Cc3ccc(OCc4c(Cl)cccc4Cl)cc3)C(=O)O)CC2)C1 [Example 59],0.1 to 2,0.02 to 0.1
CCC(CC)(C(=O)N[C@@H](Cc1ccc(OCc2c(Cl)cccc2Cl)cc1)C(=O)O)C(=O)N1CCCN(C=O)CC1 [Example 61],0.1 to 2,0.02 to 0.1
CCC(CC)(C(=O)N[C@@H](Cc1ccc(OCc2c(Cl)cccc2Cl)cc1)C(=O)O)C(=O)N1CC[C@@H](NC(=O)C(F)(F)F)C1 [Example 63],0.1 to 2,0.02 to 0.1
CCC(CC)(C(=O)N[C@@H](Cc1ccc(OCc2c(Cl)cccc2Cl)cc1)C(=O)O)C(=O)N1CC[C@@H](NC)C1 [Example 64],0.1 to 2,0.02 to 0.1
CCC(CC)(C(=O)N[C@@H](Cc1ccc(OCc2c(Cl)cccc2Cl)cc1)C(=O)O)C(=O)N1CC[C@H](O)C1 [Example 65],0.1 to 2,< 0.02
CCC(CC)(C(=O)N[C@@H](Cc1ccc(OCc2c(Cl)cccc2Cl)cc1)C(=O)O)C(=O)N1CC[C@H](N)C1 [Example 66],0.1 to 2,0.02 to 0.1
CCC(CC)(C(=O)N[C@@H](Cc1ccc(OCc2c(Cl)cccc2Cl)cc1)C(=O)O)C(=O)N1CCC[C@H]1C(N)=O [Example 67],0.1 to 2,0.02 to 0.1
